{"source": "patent US20260014122A1", "about": "“DRUG FOR LOWERING BLOOD LDL CHOLESTEROL” (KOWA COMPANY, LTD., priority 2022, published 2026)", "tested_on": "patient of a nonalcoholic fatty liver disease (NAFLD)", "experiment": "Effect of compound A on blood LDL-C and cholesterol synthesis/absorption markers in NAFLD patients, compared with placebo", "assay_type": "in vivo, human", "conditions": "for fasting blood LDL-C concentration (rate of change from baseline): FIG. 1", "key": {"[1]": {"conditions": "NAFLD patients, 0.4 mg per day oral, 8 weeks, vs placebo, FIG. 3"}}, "data": [{"compound": "CC[C@@H](Oc1cccc(CN(CCCOc2ccc(OC)cc2)c2nc3ccccc3o2)c1)C(=O)O", "note": "[compound A, (R)-2-[3-[[N-(benzoxazol-2-yl)-N-3-(4-methoxyphenoxy)propyl]aminomethyl]phenoxy]butyric acid]", "values": [{"measurement": "fasting blood LDL-C concentration (rate of change from baseline)", "setting": "NAFLD patients who did not take any existing agent for reducing LDL-C, 0.4 mg per day oral, 12 weeks, vs placebo", "value": "reduced a fasting blood LDL-C concentration as compared to the placebo administration"}, {"measurement": "fasting blood LDL-C concentration (rate of change from baseline)", "setting": "NAFLD patients, entire group including patients taking an existing agent for reducing LDL-C, 0.4 mg per day oral (0.2 mg twice a day), 12 weeks, vs placebo", "value": "reduced a fasting blood LDL-C concentration as compared to the placebo administration"}, {"measurement": "fasting blood concentration of campesterol (absorption marker for cholesterol), rate of change from baseline", "setting": "[1]", "value": "reduced the fasting blood concentration of sitosterol and the fasting blood concentration of campesterol"}, {"measurement": "fasting blood concentration of lathosterol (synthesis marker for cholesterol), rate of change from baseline", "setting": "[1]", "value": "reduced the fasting blood concentration of lathosterol"}, {"measurement": "fasting blood concentration of sitosterol (absorption marker for cholesterol), rate of change from baseline", "setting": "[1]", "value": "reduced the fasting blood concentration of sitosterol"}, {"measurement": "reducing effect on LDL-C for each initial value of the blood LDL-C", "setting": "NAFLD patients, 0.4 mg per day oral, 12 weeks, FIG. 2", "value": "became larger as the blood LDL-C concentration before the administration thereof increased"}]}]}
